What was measured:
human mGlu2 receptor = target: T1, human mGlu2 receptor (Homo sapiens, UniProt Q14416); assay: [35S]GTPγS binding assay, negative allosteric modulation of mGluR2; format: biochemical; settings: for Emax: maximal % inhibition relative to the control glutamate response (EC80 glutamate), read-out: GTPγS-hmGluR2 anGT Emax; for IC50: membranes from CHO cells transfected with human mGlu2 receptor, glutamate 60 μM (~EC80), read-out: GTPγS-hmGluR2 anGT pIC50 (converted)
T1 construct: expressed in transfected cells; host or cells: CHO cells
Text: The compounds provided in the present invention are negative allosteric modulators of mGluR2. These compounds appear to inhibit glutamate responses by binding to an allosteric site other than the glutamate binding site. The response of mGluR2 to a concentration of glutamate is decreased when compounds of Formula (I) are present. Compounds of Formula (I) are expected to have their effect substantially at mGluR2 by virtue of their ability to reduce the function of the receptor. The effects of negative allosteric modulators tested at mGluR2 using the [^35S]GTPγS binding assay method described below and which is suitable for the identification of such compounds, and more particularly the compounds according to Formula (I), are shown in Table 7.
1) [^35S]GTPγS Binding Assay
The [^35S]GTPγS binding assay is a functional membrane-based assay used to study G-protein coupled receptor (GPCR) function whereby incorporation of a non-hydrolysable form of GTP, [^35S]GTPγS (guanosine 5′-triphosphate, labelled with […] ^35S), is measured. The G-protein a subunit catalyzes the exchange of guanosine 5′-diphosphate (GDP) by guanosine triphosphate (GTP) and on activation of the GPCR by an agonist, [^35S]GTPγS, becomes incorporated and cannot be cleaved to continue the exchange cycle (Harper (1998) Current Protocols in Pharmacology 2.6.1-10, John Wiley & Sons, Inc.). […] Here we describe the use of the [^35S]GTPγS binding assay using membranes from cells transfected with the human mGlu2 receptor and adapted from Schaffhauser et al. (Molecular Pharmacology, 2003, […]) for the detection of the negative allosteric modulation (NAM) properties of the compounds of this invention.
CHO-cells were cultured to pre-confluence and stimulated with 5 mM butyrate for 24 h. Cells were then collected by scraping in PBS and cell suspension was centrifuged (10 min at 4000 RPM in benchtop centrifuge). Supernatant was discarded and pellet gently resuspended in 50 mM Tris-HCl, pH 7.4 by mixing with an Ultra Turrax homogenizer. The suspension was centrifuged at 12,400 RPM (Sorvall F14S-6x250Y) for 10 minutes and the supernatant discarded. The pellet was homogenized in 5 mM Tris-HCl, pH 7.4 using an Ultra Turrax homogenizer and centrifuged again (13,000 RPM, 20 min, 4° C.). The final pellet was resuspended in 50 mM Tris-HCl, pH 7.4 and stored at −80° C. in appropriate aliquots before use. Protein concentration was determined by the Bradford method (Bio-Rad, USA) with bovine serum albumin as standard.
[^35S]GTPγS Binding Assay
Measurement of mGluR2 negative allosteric modulatory activity of test compounds was performed as follows. Test compounds and glutamate were diluted in assay buffer containing 10 mM HEPES acid, 10 mM HEPES salt, pH 7.4, 100 mM NaCl, 3 mM MgCl2 and 10 μM GDP. Human mGlu2 receptor-containing membranes were thawed on ice and diluted in assay buffer supplemented with 18 μg/ml saponin. Membranes were pre-incubated with compound together with a predefined (˜EC80) concentration of glutamate (60 μM) for 30 min at 30° C. After addition of [^35S]GTPγS (f.c. 0.1 nM), assay mixtures were shaken briefly and further incubated to allow [^35S]GTPγS incorporation on activation (30 minutes, 30° C.). Final assay mixtures contained 7 μg of membrane protein in 10 mM HEPES acid, 10 mM HEPES salt, pH 7.4, 100 mM NaCl, 3 mM MgCl2, 10 μM GDP and 10 μg/ml saponin. Total reaction volume was 200 μl. Reactions were terminated by rapid filtration through Unifilter-96 GF/B plates (Perkin Elmer, Massachusetts, USA) using a 96-well filtermate universal harvester. Filters were washed 6 times with ice-cold 10 mM NaH2PO4/10 mM Na2HPO4, pH 7.4. Filters were then air-dried, and 30 μl of liquid scintillation cocktail (Microscint-O) was added to each well. Membrane-bound radioactivity was counted in a Topcount.
The concentration-response curves of representative compounds of the present invention were generated using the Lexis software interface (developed at J&J). […]

rats = assay: Reversal of the effect of the mGluR2 PAM JNJ-42153605-induced inhibition of scopolamine-induced hyperlocomotion; format: in vivo; settings: Rattus norvegicus, PO, criterion for reversal: total distance >1500 cm, read-out: ED50 SCOP JNJ-42153605
Experimental: 2) Reversal of the Effect of the mGluR2 PAM JNJ-42153605-induced Inhibition of Scopolamine-induced Hyperlocomotion Apparatus
Motor activity was measured in microprocessor-based motor activity arenas (closed gray PVC cylinders with a height of 39 cm and a diameter of 31 cm). Each arena was placed on an infrared LED (8×8 LEDs) lit box (white PVC squared box; 40×40 cm^2; height 12.5 cm. An infrared-sensitive tube camera and a white light source were mounted to the ceiling above the observation chamber to track the animal. The total distance traveled (cm) was recorded and analyzed using the Noldus Ethovision XT Video Tracking System (Version 7.0.418; Noldus, Wageningen, The Netherlands). The intensity of the light within the activity cages (measured in the centre at the level of the floor) ranged between 4 and 8 LUX.
The rats were pretreated with test compound or vehicle at 60 min before the start of the activity recordings and placed into individual cages. The rats were challenged with JNJ-42153605 (3-(cyclopropylmethyl)-7-(4-phenylpiperidin-1-yl)-8-(trifluoromethyl)-[1,2,4]triazolo[4,3-a]pyridine; WO2010/130424; Cid et al. J. Med. Chem. 2012, 55, 8770-8789) (20 mg/kg, i.v.) 30 min before the start of the activity recording combined with scopolamine (0.16 mg/kg, i.v.) just before the start of the activity measurements. Immediately after the injection of scopolamine, the rats were placed into the activity monitors and total distance traveled over the first 30 min was measured.
Solvent-pretreated Control Rats.
Animals receiving the combination of JNJ-42153605 and scopolamine (n=433) almost always traveled a distance of less than 1500 cm (<1500 cm) (only 2.5% of the control rats traveled a distance of more than 1500 cm (>1500 cm)). On the other hand, animals challenged with scopolamine alone (n=215) always traveled a total distance of more than 1500 cm (>1500 cm) and almost always (in 95.8% of the rats) a distance of more than 4400 cm (>4400 cm). […] For reversal of the inhibitory effect of JNJ-42153605 on the scopolamine-induced hyperlocomotion, the following all-or-none criteria were adopted: (1) reversal: total distance>1500 cm.

Wiga Wistar rats = assay: Reversal of LY-404039-induced decrease of palpebral opening in apomorphine-challenged rats; format: in vivo; settings: Rattus norvegicus, PO, criterion: cumulative palpebral opening score >26, read-out: ED50 APO LY-404039
Experimental: B) In Vivo Pharmacology 1) Reversal of LY-404039-induced Decrease of Palpebral Opening in Apomorphine-challenged Rats.
Male Wiga Wistar rats (Crl:WI; Charles River Germany; 220±40 g) were housed under standard laboratory conditions (21±2° C.; 50-65% relative humidity; light-dark cycle set at 12 h; lights on at 6.00 h) and fasted overnight prior to the start of the experiments (tap water remained available ad libitum). During the test period, they were housed in individual cages. Palpebral opening was scored every 5 min over the first hour after injection of apomorphine (1.0 mg/kg, i.v.) in animals either pretreated or not pretreated with LY-404039 (2.5 mg/kg, s.c.) at 1 h prior to the apomorphine injection. The animals were also pretreated with test compound or solvent at a predefined interval before apomorphine challenge. The score system was: (5) exophthalmos, (4) wide open, (3) open for three-quarters, (2) half open, (1) open for one-quarter, (0) closed. The scores for palpebral opening were cumulated over the 60-min observation period. A cumulative palpebral opening score>26 was selected for drug-induced reversal of the LY-404039-induced decrease of palpebral opening (occurrence in 3.2% of control animals pretreated with LY-404039 (n=154) versus in 99.5% of control rats not pretreated with LY-404039 (n=6335)). […]

T1 sequence (Q14416 19-872): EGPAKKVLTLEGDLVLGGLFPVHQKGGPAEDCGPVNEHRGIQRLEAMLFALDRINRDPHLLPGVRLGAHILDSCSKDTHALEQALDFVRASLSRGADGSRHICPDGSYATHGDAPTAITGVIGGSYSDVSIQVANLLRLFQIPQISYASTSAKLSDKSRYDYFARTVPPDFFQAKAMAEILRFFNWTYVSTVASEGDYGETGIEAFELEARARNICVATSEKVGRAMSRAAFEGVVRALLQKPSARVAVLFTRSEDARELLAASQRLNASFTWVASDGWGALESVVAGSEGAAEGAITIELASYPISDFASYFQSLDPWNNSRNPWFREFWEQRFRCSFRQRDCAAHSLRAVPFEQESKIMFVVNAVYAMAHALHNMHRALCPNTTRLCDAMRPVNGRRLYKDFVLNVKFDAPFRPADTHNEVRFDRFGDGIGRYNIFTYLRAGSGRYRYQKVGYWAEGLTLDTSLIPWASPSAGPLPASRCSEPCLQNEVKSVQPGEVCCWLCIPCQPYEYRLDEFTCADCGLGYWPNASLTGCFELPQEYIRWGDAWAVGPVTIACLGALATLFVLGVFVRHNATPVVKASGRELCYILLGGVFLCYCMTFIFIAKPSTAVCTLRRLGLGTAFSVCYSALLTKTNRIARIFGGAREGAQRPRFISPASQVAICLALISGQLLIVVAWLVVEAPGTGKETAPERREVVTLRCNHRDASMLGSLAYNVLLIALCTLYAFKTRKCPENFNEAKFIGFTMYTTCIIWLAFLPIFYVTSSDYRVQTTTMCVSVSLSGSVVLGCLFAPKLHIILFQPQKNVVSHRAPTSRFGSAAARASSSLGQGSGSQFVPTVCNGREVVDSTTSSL

Structure (SMILES) | melting point | Emax (human mGlu2 receptor) | IC50 (human mGlu2 receptor) | ED50 (rats) | ED50 (Wiga Wistar rats)
C[C@H]1CN(c2ccc(Cl)c(Cl)c2)C(=O)c2c(-c3c[nH]c(-c4ccccn4)n3)cnn21 [Compound 18] | 278.31 °C | 110% | 9.12 nM | > 0.63 mg/kg | 
Cc1cc(N2C[C@H](C)n3ncc(-c4[nH]c(C5CC5)nc4C)c3C2=O)ccc1C(F)(F)F [Compound 21] | 146.2 °C | 108% | 5.75 nM | > 0.63 mg/kg | 
Cc1nc(C2CC2)[nH]c1-c1cnn2c1C(=O)N(c1ccc(C(F)(F)F)c(Cl)c1)C[C@@H]2C [Compound 28] | 158.23 °C | 111% | 3.72 nM | > 0.63 mg/kg | 
Cc1nc(C)c(-c2cnn3c2C(=O)N(c2ccc(C(F)(F)F)c(Cl)c2)C[C@@H]3C)[nH]1.Cl [Compound 30] | 270.45 °C | 109% | 6.31 nM | 1.99 mg/kg | 
Cc1[nH]c(-c2cccnc2)nc1-c1cnn2c1C(=O)N(c1ccc(C(F)(F)F)c(Cl)c1)C[C@@H]2C [Compound 32] | 269.39 °C | 109% | 15.5 nM | > 0.63 mg/kg | 
C[C@H]1CN(c2ccc(C(F)(F)F)c(Cl)c2)C(=O)c2c(-c3c[nH]c(-c4ccc(N)nc4)n3)cnn21 [Compound 33] | 286.55 °C | 106% | 16.2 nM | > 0.63 mg/kg | 
Cc1[nH]c(-c2ccc(N)nc2)nc1-c1cnn2c1C(=O)N(c1ccc(C(F)(F)F)c(Cl)c1)C[C@@H]2C [Compound 34] | 280.85 °C | 109% | 30.9 nM | > 0.63 mg/kg | 

Further lines, with some results ahead:

melting point | Emax (human mGlu2 receptor) | IC50 (human mGlu2 receptor) | Structure (SMILES) | ED50 (rats) | ED50 (Wiga Wistar rats)
167.9 °C | 104% | 25.7 nM | Cc1nc(-c2cnn3c2C(=O)N(c2ccc(C(F)(F)F)cc2)C[C@@H]3C)c[nH]1 [Compound 4] | > 2.5 mg/kg | 
276.61 °C | 109% | 55 nM | C[C@H]1CN(c2ccc(C(F)(F)F)cc2)C(=O)c2c(-c3c[nH]c(-c4ccc(N)nc4)n3)cnn21 [Compound 11] | > 0.63 mg/kg | 
215.62 °C | 108% | 186 nM | Cc1[nH]c(-c2ccc(N)nc2)nc1-c1cnn2c1C(=O)N(c1ccc(C(F)(F)F)cc1)C[C@@H]2C [Compound 16] | > 0.63 mg/kg | 
140.5 °C | 110% | 16.2 nM | Cc1cc(N2C[C@H](C)n3ncc(-c4c[nH]c(-c5ccccn5)n4)c3C2=O)ccc1C(F)(F)F [Compound 22] | > 0.63 mg/kg | 
 | 106% | 2 nM | C[C@H]1CN(c2ccc(C(F)(F)F)c(Cl)c2)C(=O)c2c(-c3c[nH]c(C4CC4)n3)cnn21 [Compound 25] | 0.726 mg/kg | 0.79 mg/kg
160.38 °C | 111% | 2.69 nM | CC(C)c1nc(-c2cnn3c2C(=O)N(c2ccc(C(F)(F)F)c(Cl)c2)C[C@@H]3C)c[nH]1 [Compound 26] | 1.99 mg/kg | 
269.95 °C | 107% | 10.2 nM | C[C@H]1CN(c2ccc(C(F)(F)F)c(Cl)c2)C(=O)c2c(-c3c[nH]c(C(N)=O)n3)cnn21 [Compound 31] | > 0.63 mg/kg | 

Source: patent US10072014B2 (Janssen Pharmaceutica NV, priority 2014, dated 2018)
